# Measured values from patent US8178324B2, “Deracemisation of amines” (Ingenza Limited, priority 2002, dated 2012).
# Entries after “also recorded” stand apart in the source; their conditions may differ. Like-named read-outs stand apart in the source and are kept apart here.
# Experiments:
# [1] = biological target: T1, N336S mutant A. niger monoamine oxidase (Aspergillus niger, UniProt P46882, A300V/K348M/L304V/N336S/R450G); type: biochemical; parameters: key to Relative Rate (symbol): *: No measurable rate; conditions: for Relative Rate: relative to (S)-α Methylbenzylamine = 1
# T1 construct: made in house; host or cells: E. coli BL21(DE3), pET16b
# T1 sequence (P46882 whole entry A300V/L304V/N336S/K348M/R450G): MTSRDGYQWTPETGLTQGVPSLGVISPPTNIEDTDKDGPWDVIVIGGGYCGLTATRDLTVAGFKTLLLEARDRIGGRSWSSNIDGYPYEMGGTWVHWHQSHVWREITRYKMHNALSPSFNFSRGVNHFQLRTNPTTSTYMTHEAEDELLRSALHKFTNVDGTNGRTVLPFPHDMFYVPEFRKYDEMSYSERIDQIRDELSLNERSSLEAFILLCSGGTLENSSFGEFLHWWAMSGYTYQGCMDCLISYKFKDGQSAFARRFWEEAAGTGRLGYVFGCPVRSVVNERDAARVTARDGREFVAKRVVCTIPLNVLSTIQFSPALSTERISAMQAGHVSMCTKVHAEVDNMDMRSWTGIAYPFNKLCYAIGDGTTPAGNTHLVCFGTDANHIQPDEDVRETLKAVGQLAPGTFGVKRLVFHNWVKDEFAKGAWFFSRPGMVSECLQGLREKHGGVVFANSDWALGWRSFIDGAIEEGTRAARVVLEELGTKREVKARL
# Experimental: (§1) 5 ml phosphate buffer (1 M, pH 7.6)
# (§2) 500 μl 2,4,6-tribromo-3-hydroxybenzoic acid (2% in DMSO)
# (§3) 37.5 μl 4-aminoantipyrine (1.5 M) • 30 μl amine substrate (final concentration 0.015-5 mM) • 44.4 ml water
# (§4) Assay Conditions: • 990 μl assay mixture • 5 μl horse radish peroxidase (1 mg·ml^−1) • 10 μl enzyme
# (§5) The spectrophotometer was blanked against assay mixture and HRP. Enzyme was added and the absorbance at 500 nm measured at 3 s intervals for a 10 minute period.
# The activity of the mutant enzyme described above was studied in relation to a variety of amine substrates. […]
# [2] = biological target: T2, mutant amine oxidase (N336S) (Aspergillus niger, UniProt P46882, A300V/K348M/L304V/N336S/R450G); test: Chiral HPLC (Chiralcel CrownPak CR+) check of oxidation by the mutant; type: biochemical; conditions: after 24 h
# T2 construct: made in house; host or cells: E. coli BL21(DE3), pET16b
# T2 sequence (P46882 whole entry A300V/L304V/N336S/K348M/R450G): as above
# Experimental: The data reveal that the activity of the mutant amine oxidase towards L-AMBA (kcat=8.0 min-1) is 47 fold higher than the wild-type (kcat=0.17 min-1). Moreover the selectivity of the mutant for the L-enantiomer versus D-AMBA (ca. 100:1) has also been increased relative to the wild type enzyme (ca. 17:1). Thus the outcome of the in vitro evolution experiments has been to simultaneously improve both the enantioselectivity and catalytic activity of the enzyme. For comparison, the activity towards the best substrate for the wild-type enzyme, namely amylamine, and also benzylamine, is presented.
# MAO mutant N336S = biological target: T3, MAO mutant N336S (Aspergillus niger, UniProt P46882, A300V/K348M/L304V/N336S/R450G); test: Stereoinversion reaction with MAO mutant N336S and ammonia-borane, HPLC monitoring; type: biochemical; conditions: ammonia-borane, 30° C., 24 hours
# T3 construct: made in house; host or cells: E. coli BL21(DE3), pET16b
# T3 sequence (P46882 whole entry A300V/L304V/N336S/K348M/R450G): as above
# Experimental: More Specifically, MAO mutant N336S (100 μl of 0.193 U·ml^−1=0.02 U) was added to a solution of L-AMBA (0.13 μl, final concentration=0.4 mM) and ammonia-borane complex (10 μl of 4M solution, final concentration=80 mM, 200 eq) in phosphate buffer (400 μl, 20 mM, pH8). A 10 μl aliquot was diluted in 990 μl perchloric acid, pH 1.5 and analysed by HPLC. The reaction mixture was incubated at 30° C. and the reaction monitored by HPLC at regular intervals until no further reaction was observed.
# Analytical conditions: Column=Chiralcel CrownPak CR+ • Mobile phase=100% perchloric acid, pH 1.5 • Flow rate=0.8 ml·min^−1 • Detection=200 nm • Temperature=25° C. • r.t. (L-AMBA)=12.8 min • r.t. (D-AMBA)=16.5 min
# [3] = biological target: T4, wild-type A. niger MAO-N enzyme (Aspergillus niger, UniProt P46882, A300V/K348M/L304V/R450G); test: Colorimetric hydrogen peroxide (HRP/TBHBA/4-aminoantipyrine) amine oxidase assay, purified wild-type enzyme; type: biochemical; conditions: for kcat, Wild-type Enzyme: purified wild-type enzyme, active enzyme from FAD absorbance at 458 nm
# T4 construct: made in house; host or cells: E. coli BL21(DE3), pET16b
# T4 sequence (P46882 whole entry A300V/L304V/K348M/R450G): as the sequence (P46882 whole entry A300V/L304V/N336S/K348M/R450G) above, with S336N counted along it
# Experimental: (§6) The wild-type enzyme was also purified by the same protocol and the two enzymes compared for substrate specificity and enantioselectivity.
# as §1, §2, §3, §4, §5
# (§7) The Km values were calculated using ‘KaleidaGraph for Windows’ (Synergy Software). For calculation of the kcat, the active enzyme concentration was determined by estimating the FAD content from the absorbance at 458 nm using an extinction coefficient of 11 mM^−1 cm^−1 (see ref 12).
# [4] = biological target: T5, mutant A. niger monoamine oxidase (N336S) (Aspergillus niger, UniProt P46882, A300V/K348M/L304V/N336S/R450G); test: Colorimetric hydrogen peroxide amine oxidase assay, purified mutant enzyme (N336S); type: biochemical
# T5 construct: made in house; host or cells: E. coli BL21(DE3), pET16b
# T5 sequence (P46882 whole entry A300V/L304V/N336S/K348M/R450G): as the sequence (P46882 whole entry A300V/L304V/N336S/K348M/R450G) above
# Experimental: as §6
# The mutated gene was also sequenced and the sequence is shown in SEQ ID NO: 2. There was a single amino acid change from the wild-type enzyme with serine replacing asparagine at position 336.
# LB medium (6×300 ml) containing ampicillin (100 μg·ml^−1) in 1 L baffled flasks was inoculated with a single colony of monoamine oxidase mutant from an LB agar plate. Cultures were incubated at 30° C. for 22 hours (OD600˜3.6) then harvested and washed with phosphate buffer (50 mM, pH 8) to yield a yellow-brown pellet (11.2 g).
# The pellet was resuspended in Tris/HCl buffer (25 mM, pH 7.8, 30 ml) and sonicated on ice (30 s on, 30 s off for 10 minutes). The suspension was then centrifuged (20,000 rpm, 4° C.) until clear supernatant was obtained and the supernatant dialysed against Tris/HCl buffer (25 mM, pH 7.8). The cell free extract was filtered through 0.45 μm sterile membrane and chromatographed on a QSepharose anion exchange column. Fractions were assayed using colorimetric hydrogen peroxide based assay and active fractions were stored at −80° C. The active fraction has a protein content of 1 mg·ml^−1, and a specific activity of 0.193 U·mg^−1 against amylamine.
# as §1, §2, §3, §4, §5, §7
# [5] = biological target: Type II monoamine oxidase from Aspergillus niger (MAO-N) (Aspergillus niger, UniProt P46882, A300V/K348M/L304V/R450G); conditions: literature refs 10-12; cited from earlier work
# Type II monoamine oxidase from Aspergillus niger (MAO-N), sequence (P46882 whole entry A300V/L304V/K348M/R450G): as the sequence (P46882 whole entry A300V/L304V/N336S/K348M/R450G) above, with S336N counted along it
SMILES,Relative Rate (symbol) [1],Relative Rate [1],also measured
Cc1ccc([C@@H](C)N)cc1,*,–,–
Cc1ccc([C@H](C)N)cc1,–,0.28,–
CC(N)c1ccc(Br)cc1 (racemic) [(rac)-4-Bromo-α-phenylethylamine],*,–,–
CC(N)c1ccccc1 (racemic) [(rac)-α Methylbenzylamine],*,–,–
"CC(C)CC(C)N (stereo not drawn) [1,3-Dimethylbutylamine]",–,1.8,–
CC1CCCCC1N (stereo not drawn) [2-Methylcyclohexylamine],–,0.43,–
COc1ccc([C@@H](C)N)cc1 [(R)-1-4-Methoxyphenylethylamine],–,0.13,–
C[C@@H](N)C(C)(C)C [(R)-3-3-Dimethyl-2-butylamine],*,–,–
CC(C)[C@@H](C)N [(R)-3-Methyl-2-butylamine],*,–,–
C[C@@H](N)c1ccc(Br)cc1 [(R)-4-Bromo-α-phenylethylamine],*,–,–
C[C@@H](N)c1ccc([N+](=O)[O-])cc1 [(R)-α-Methyl-4-nitrobenzylamine],–,0.06,–
COc1ccc([C@H](C)N)cc1 [(S)-1-4-Methoxyphenylethylamine],–,0.81,–
C[C@H](N)C(C)(C)C [(S)-3-3-Dimethyl-2-butylamine],–,1.4,–
CC(C)[C@H](C)N [(S)-3-Methyl-2-butylamine],–,5.4,–
C[C@H](N)c1ccc(Br)cc1 [(S)-4-Bromo-α-phenylethylamine],–,0.24,–
C[C@H](N)c1ccc([N+](=O)[O-])cc1 [(S)-α-Methyl-4-nitrobenzylamine],–,0.91,–
CC(NC(C)c1ccccc1)c1ccccc1 (stereo not drawn) [Bis(α-methyl)benzylamine],*,–,–
"CC(N)c1ccccc1 [D-AMBA, α-methylbenzylamine]",*,–,"oxidation by the mutant seen by chiral HPLC [2]: no detectable conversion; conversion under stereoinversion conditions (MAO mutant N336S): no conversion; also recorded: no reaction was observed; activity of the wild-type A. niger MAO-N enzyme ([3]; listed as D-enantiomer): even slower oxidation; kcat, Wild-type Enzyme [3]: 0.00017 s⁻¹; kcat, Mutant Enzyme ([4]; purified N336S mutant): 0.0013 s⁻¹"
CCCCCCN [Hexylamine],–,18.6,–
"CC(N)c1ccccc1 [L-AMBA, L-α-methylbenzylamine]",–,1,"oxidation by the mutant seen by chiral HPLC [2]: complete oxidation; activity of the wild-type A. niger MAO-N enzyme [3]: very low, but measurable activity; kcat, Wild-type Enzyme [3]: 0.00283 s⁻¹; activity (kcat) of the mutant relative to the wild-type ([4]; mutant kcat versus wild-type kcat): 47 fold; Km ([4]; purified N336S mutant): 400 µM; kcat, Mutant Enzyme ([4]; purified N336S mutant): 0.133 s⁻¹"
CCCCCCCN [N-heptylamine],–,12.1,–
CCCCCN [amylamine],–,25.2,"kcat, Wild-type Enzyme [3]: 16.67 s⁻¹; reported activity of MAO-N [5]: high activity"
NCc1ccccc1 [benzylamine],–,–,"kcat, Wild-type Enzyme [3]: 6.18 s⁻¹; reported activity of MAO-N [5]: active, albeit at a lower rate; kcat, Mutant Enzyme ([4]; purified N336S mutant): 3.27 s⁻¹"
CCCCN [butylamine],–,–,reported activity of MAO-N [5]: high activity
